Laboratory results reported in patent US11866450B2, “Modulators of Cystic Fibrosis Transmembrane Conductance regulator, pharmaceutical compositions, methods of treatment, and process for making the modulators” (priority 2018, dated 2024).
pEC50: −log10 of the molar value.

Target: CFTR-mediated chloride transport (Homo sapiens, UniProt P13569)
Format: cell-based
Details: enteroid cells incubated with test compound 18-24 hours, acute 10 μM forskolin and 300 nM Compound III; for Max. Activity: % of chloride transport with 3 μM Compound A, 3 μM Compound II and 300 nM acute Compound III triple combination control
How it was run: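 Human intestinal enteroid cells incubated with compound 18–24 h at 37° C., then membrane potential dye (FLIPR) read 15 min after chloride-free stimulation with 10 μM forskolin, 100 μM IBMX and 300 nM Compound III. AUC expressed as % of triple-combination control (3 μM Compound A, 3 μM Compound II, 300 nM Compound III).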

Sequence of CFTR-mediated chloride transport (P13569 whole entry, looked up): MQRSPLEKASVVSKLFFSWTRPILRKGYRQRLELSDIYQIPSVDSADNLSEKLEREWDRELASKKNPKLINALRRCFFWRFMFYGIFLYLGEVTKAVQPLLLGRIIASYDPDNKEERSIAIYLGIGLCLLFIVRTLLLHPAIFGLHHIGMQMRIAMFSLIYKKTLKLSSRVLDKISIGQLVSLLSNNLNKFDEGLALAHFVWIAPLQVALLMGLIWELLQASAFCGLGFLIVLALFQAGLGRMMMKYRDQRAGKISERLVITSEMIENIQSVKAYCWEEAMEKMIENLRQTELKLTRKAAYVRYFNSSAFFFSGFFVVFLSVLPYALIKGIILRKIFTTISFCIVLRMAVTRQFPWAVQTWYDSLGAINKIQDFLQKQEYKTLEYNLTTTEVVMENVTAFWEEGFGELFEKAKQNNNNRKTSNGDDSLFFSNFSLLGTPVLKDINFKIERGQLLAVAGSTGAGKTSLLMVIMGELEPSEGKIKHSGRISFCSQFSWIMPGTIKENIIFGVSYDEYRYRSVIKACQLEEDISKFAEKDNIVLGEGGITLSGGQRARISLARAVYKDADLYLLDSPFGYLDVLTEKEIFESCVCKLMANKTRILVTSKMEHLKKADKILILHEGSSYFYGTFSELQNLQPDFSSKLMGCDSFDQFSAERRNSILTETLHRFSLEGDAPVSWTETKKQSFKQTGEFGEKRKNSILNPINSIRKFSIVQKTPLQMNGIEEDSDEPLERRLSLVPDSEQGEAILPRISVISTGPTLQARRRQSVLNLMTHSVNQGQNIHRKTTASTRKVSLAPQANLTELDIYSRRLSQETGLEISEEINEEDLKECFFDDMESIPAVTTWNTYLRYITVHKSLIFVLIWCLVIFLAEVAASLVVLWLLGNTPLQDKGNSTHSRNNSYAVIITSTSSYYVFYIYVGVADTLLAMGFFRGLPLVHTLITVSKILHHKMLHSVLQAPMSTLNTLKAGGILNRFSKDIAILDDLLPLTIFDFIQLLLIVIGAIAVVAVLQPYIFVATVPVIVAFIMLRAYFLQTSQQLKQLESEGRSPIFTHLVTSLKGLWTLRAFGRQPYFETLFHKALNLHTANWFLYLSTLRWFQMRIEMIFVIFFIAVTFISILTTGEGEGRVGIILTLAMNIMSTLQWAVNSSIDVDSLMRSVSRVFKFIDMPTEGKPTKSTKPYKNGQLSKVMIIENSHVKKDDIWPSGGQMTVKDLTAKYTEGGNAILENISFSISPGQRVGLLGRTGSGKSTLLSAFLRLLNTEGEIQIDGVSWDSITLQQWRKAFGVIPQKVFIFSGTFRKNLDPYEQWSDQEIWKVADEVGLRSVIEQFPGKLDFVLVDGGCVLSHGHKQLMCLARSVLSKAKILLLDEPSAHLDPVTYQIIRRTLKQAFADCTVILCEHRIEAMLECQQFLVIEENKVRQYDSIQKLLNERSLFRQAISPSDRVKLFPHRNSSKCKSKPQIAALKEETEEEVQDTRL

| Structure (SMILES) | pEC50 | Max. Activity |
| --- | --- | --- |
| Cc1c2cnn1CCCC[C@H]1CN(c3nc(-n4ccc(OCCC5(C(F)(F)F)CC5)n4)ccc3C(=O)NS2(=O)=O)C(C)(C)C1 (single isomer, unassigned) [Compound 80, 21,21,23-Trimethyl-4-(3-{2-[1-(trifluoromethyl)cyclopropyl]ethoxy}-1H-pyrazol-1-yl)-10λ^6-thia-1,3,9,13,14-pentaazatetracyclo[17.2.1.111,14.02,7]tricosa-2,4,6,11(23),12-pentaene-8,10,10-trione] | < 5.52 | + (+ is <30%) |
| CC1(C)C[C@H]2CCCn3ccc(n3)S(=O)(=O)NC(=O)c3ccc(-n4ccc(OCCCC5(C(F)(F)F)CC5)n4)nc3N1C2 (single isomer, unassigned) [Compound 166, 20,20-dimethyl-4-(3-{3-[1-(trifluoromethyl)cyclopropyl]propoxy}-1H-pyrazol-1-yl)-10λ^6-thia-1,3,9,14,22-pentaazatetracyclo[16.2.1.111,14.02,7]docosa-2(7),3,5,11(22),12-pentaene-8,10,10-trione] | > 6.00 | +++ (+++ is >60%) |
| CC1(C)C[C@@H]2CCCNc3cccc(n3)S(=O)(=O)NC(=O)c3ccc(-n4ccc(OC[C@@H](O)CC5(C(F)(F)F)CC5)n4)nc3N1C2 (single isomer, unassigned) [Compound 284] | > 6.00 | +++ (+++ is >60%) |
| CC1(C)C[C@@H]2CCCNc3cccc(n3)S(=O)(=O)NC(=O)c3ccc(N4CC[C@H](OCCCC5(C(F)(F)F)CC5)C4=O)nc3N1C2 (single isomer, unassigned) [Compound 243] | > 6.00 | +++ (+++ is >60%) |
| CC1(C)C[C@H]2CCCn3ccc(n3)S(=O)(=O)NC(=O)c3ccc(-n4ccc(OCCC5(C(F)(F)F)CC5)n4)nc3N1C2 [Compound 84, (18R)-20,20-Dimethyl-4-(3-{2-[1-(trifluoromethyl)cyclopropyl]ethoxy}-1H-pyrazol-1-yl)-10λ^6-thia-1,3,9,14,22-pentaazatetracyclo[16.2.1.111,14.02,7]docosa-2,4,6,11(22),12-pentaene-8,10,10-trione] | < 5.52 | + (+ is <30%) |
| CN1CCC[C@H]2CN(c3nc(-n4ccc(OCCC5(C(F)(F)F)CC5)n4)ccc3C(=O)NS(=O)(=O)c3cccc1n3)C(C)(C)C2 (single isomer, unassigned) [Compound 139, 12,12,18-trimethyl-8-(3-{2-[1-(trifluoromethyl)cyclopropyl]ethoxy}-1H-pyrazol-1-yl)-2λ^6-thia-3,9,11,18,23-pentaazatetracyclo[17.3.1.111,14.05,10]tetracosa-1(23),5(10),6,8,19,21-hexaene-2,2,4-trione] | > 6.00 | +++ (+++ is >60%) |
| CC(C)(C)CCC[C@H]1CCN(c2ccc3c(n2)N2C[C@@H](CCCNc4cccc(n4)S(=O)(=O)NC3=O)CC2(C)C)C1=O (single isomer, unassigned) [Compound 146] | > 6.00 | +++ (+++ is >60%) |
| CC1(C)C[C@@H]2CCCNc3cccc(n3)S(=O)(=O)NC(=O)c3ccc(N4CC[C@H](OCC56CC7CC(CC(C7)C5)C6)C4=O)nc3N1C2 (single isomer, unassigned) [Compound 245] | > 6.00 | +++ (+++ is >60%) |
| CC1(C)CC[C@H]2CNc3cccc(n3)S(=O)(=O)NC(=O)c3ccc(-n4ccc(OCCC5(C(F)(F)F)CC5)n4)nc3N21 (single isomer, unassigned) [Compound 50, 7,7-dimethyl-11-(3-{2-[1-(trifluoromethyl)cyclopropyl]ethoxy}-1H-pyrazol-1-yl)-17λ^6-thia-2,8,10,16,22-pentaazatetracyclo[16.3.1.04,8.09,14]docosa-1(22),9,11,13,18,20-hexaene-15,17,17-trione] | < 5.52 | + (+ is <30%) |
| CC1(C)C[C@@H]2CCCNc3cccc(n3)S(=O)(=O)NC(=O)c3ccc(-n4ccc(OCC[C@@H](O)C5(C(F)(F)F)CC5)n4)nc3N1C2 (single isomer, unassigned) [Compound 297] | > 6.00 | +++ (+++ is >60%) |
| CC1(C)C[C@@H]2CCCNc3cccc(n3)S(=O)(=O)NC(=O)c3ccc(-n4ccc(OCC[C@@H](O)C5(C(F)(F)F)CC5)n4)nc3N1C2 (single isomer, unassigned) [Compound 296] | > 6.00 | +++ (+++ is >60%) |
| CC1(C)C[C@H]2CCCn3ccc(n3)S(=O)(=O)NC(=O)c3ccc(-n4ccc(OCCC5C(C)(C)C5(C)C)n4)nc3N1C2 (single isomer, unassigned) [Compound 207, 20,20-dimethyl-4-{3-[2-(2,2,3,3-tetramethylcyclopropyl)ethoxy]-1H-pyrazol-1-yl}-10λ^6-thia-1,3,9,14,22-pentaazatetracyclo[16.2.1.111,14.02,7]docosa-2(7),3,5,11(22),12-pentaene-8,10,10-trione] | > 6.00 | +++ (+++ is >60%) |
| Cc1c2cnn1CCCC1CN(c3nc(-n4ccc(OCC(C)(C)C(F)(F)F)n4)ccc3C(=O)NS2(=O)=O)C(C)(C)C1 (single isomer, unassigned) [Compound 289, 20,20,22-Trimethyl-4-[3-(3,3,3-trifluoro-2,2-dimethylpropoxy)-1H-pyrazol-1-yl]-10λ^6-thia-1,3,9,13,14-pentaazatetracyclo[16.2.1.111,14.02,7]docosa-2,4,6,11(22),12-pentaene-8,10,10-trione] | > 6.00 | ++ (++ is 30-60%) |
| CC1(C)C[C@@H]2CN1c1nc(-n3ccc(OCCC4C5(CC5)C45CC5)n3)ccc1C(=O)NS(=O)(=O)c1cccc(n1)NCCO2 (single isomer, unassigned) [Compound 197, 8-[3-(2-{dispiro[2.0.2.1]heptan-7-yl}ethoxy)-1H-pyrazol-1-yl]-12,12-dimethyl-15-oxa-2λ^6-thia-3,9,11,18,23-pentaazatetracyclo[17.3.1.111,14.05,10]tetracosa-1(23),5(10),6,8,19,21-hexaene-2,2,4-trione] | > 6.00 | +++ (+++ is >60%) |
| CC1(C)C[C@@H]2CCCNc3cccc(n3)S(=O)(=O)NC(=O)c3ccc(N4CCN(CCCC5(C(F)(F)F)CC5)C4=O)nc3N1C2 [Compound 205, (14S)-12,12-Dimethyl-8-(2-oxo-3-{3-[1-(trifluoromethyl)cyclopropyl]propyl}imidazolidin-1-yl)-2λ^6-thia-3,9,11,18,23-pentaazatetracyclo[17.3.1.111,14.05,10]tetracosa-1(22),5,7,9,19(23),20-hexaene-2,2,4-trione] | > 6.00 | +++ (+++ is >60%) |
| CC1(C)C[C@H]2CCCCc3cccc(c3)S(=O)(=O)NC(=O)c3ccc(-n4ccc(OCCC5(C(F)(F)F)CC5)n4)nc3N1C2 (single isomer, unassigned) [Compound 57, 12,12-dimethyl-8-(3-{2-[1-(trifluoromethyl)cyclopropyl]ethoxy}-1H-pyrazol-1-yl)-2λ^6-thia-3,9,11-triazatetracyclo[17.3.1.111,14.05,10]tetracosa-1(22),5,7,9,19(23),20-hexaene-2,2,4-trione] | > 6.00 | ++ (++ is 30-60%) |
